From US8039505B2, “Compounds for modulating T-cells” (University of Utah Research Foundation, priority 2007, dated 2011)
Where two headings read alike, the source gives them in different places.

Assay: Pharmacokinetics in male Swiss Albino mouse, intravenous and oral (LC-MS/MS of plasma)
Format: in vivo
Protocol: The pharmacokinetics of 1H-indole-3-carbaldehyde quinolin-8-ylhydrazone (Compound C3) was evaluated following intravenous (3 mg/kg) and oral (15 mg/kg) solution administration of 1H-indole-3-carbaldehyde quinolin-8-ylhydrazone in male Swiss Albino mouse. The effect of the Test Item, 1H-indole-3-carbaldehyde quinolin-8-ylhydrazone on complete blood count (CBC) was also evaluated. Pharmacokinetic phase consisted of two groups, Group 1 and Group 2. Animals in Group 1 were given intravenous bolus dose in a vehicle containing 5% N,N-dimethylacetamide, 5% CREMOPHOR™ EL and 90% Dextrose solution (5% w/v) and those in Group 2 were given oral solution dose in a vehicle, the composition of which was same as that of intravenous formulation. In addition, the effect of Test Item on complete blood count was evaluated following intravenous and oral dose administration along with its vehicle controls. A total of four groups were used each with 6 mice.
From the pharmacokinetic group, predose samples were collected from 3 animals in each group. Following dose administration terminal blood samples were collected at each of the following time points (in triplicate): 0.083 (only for intravenous), 0.25, 0.5, 1, 2, 4, 8, 12 and 24 hours. At each time point, approximately 500 μL of whole blood was withdrawn from the retro orbital sinus and collected in labeled tubes containing dipotassium EDTA as anticoagulant (20 μL of 200 mM K2 EDTA solution per mL of blood). Plasma was separated by centrifuging the whole blood at about 2500 g for 10 minutes at 4° C. within 1 h of sample collection. Separated plasma was stored below minus 50° C. until bioanalysis. A sensitive LC-MS/MS method was used for the quantitation of 1H-indole-3-carbaldehyde quinolin-8-ylhydrazone. The lower limit of quantitation was 1.04 ng/mL. For CBC evaluation, approximately 500 μL of blood was collected in labeled tubes containing dipotassium EDTA as anticoagulant (10 […]/mL of blood) after 48 h of dose administration from all animals.
A total of 57 mice were divided into an intravenous dose group of 30 mice (Group 1) and oral dose group of 27 mice (Group 2). Animals in Group 1 received intravenous bolus dose via tail vein at 3 mg/kg and animals in Group 2 received oral solution dose via gavage at 15 mg/kg. Three animals were administered the dose for each time point (intravenous: 10 time points; Oral: 9 time points). Terminal blood samples were collected from each mouse under light ether anesthesia and plasma was separated.
Animals in Group 1 were administered an intravenous bolus dose via the tail vein (dosing volume: 6 mL/kg). Animals in Group 2 received oral dose by gavage with an oral dosing needle (dosing volume: 10 mL/kg). Animals in the CBC evaluation group were treated same as above except the animals in control group received vehicle instead of formulation.
Pharmacokinetic group: Predose samples were collected from 3 animals in each group. Following dose administration terminal blood samples were collected at each of the following time points (in triplicate): 0.083 (only for intravenous), 0.25, 0.5, 1, 2, 4, 8, 12 and 24 hours. For each time point, approximately 500 μL of whole blood was withdrawn from the retro orbital sinus and collected in labeled tubes containing dipotassium EDTA as anticoagulant (20 μL of 200 mM K2 EDTA solution per mL of blood). Plasma was separated by centrifuging the whole blood at about 2500 g for 10 minutes at 4° C. within 1 h of sample collection. Separated plasma was stored below minus 50° C. until bioanalysis.
An LC-MS/MS method was developed and employed for the quantitation of 1H-indole-3-carbaldehyde quinolin-8-ylhydrazone in the mouse plasma samples. The samples were prepared for analysis following liquid-liquid extraction using amodiaquin as internal standard. The lower limit of quantitation was 1.04 ng/mL.
Pharmacokinetic parameters were calculated using non-compartmental analysis tool of WINNONLIN™ Enterprise software (Version 5.1.1). […]

[1] = male, Swiss Albino, mouse, plasma, iv, 3 mg/kg, mouse, intravenous bolus 3 mg/kg, N = 3, read-out: Mean plasma concentration
[2] = male, Swiss Albino, mouse, plasma, iv, 3 mg/kg, mouse, intravenous bolus 3 mg/kg, individual mice, LLOQ 1.04 ng/mL, read-out: Individual plasma concentration
[3] = male, Swiss Albino, mouse, plasma, oral, 15 mg/kg, mouse, oral solution 15 mg/kg, N = 3, read-out: Mean plasma concentration
[4] = male, Swiss Albino, plasma, mouse, IV 3 mg/kg
[5] = male, Swiss Albino, plasma, mouse, oral solution 15 mg/kg

SMILES: C(=NNc1cccc2cccnc12)c1c[nH]c2ccccc12 [Compound C3, 1H-indole-3-carbaldehyde quinolin-8-ylhydrazone]
- concentration at 0.5 h (male, Swiss Albino, mouse, plasma, iv, 3 mg/kg, intravenous bolus 3 mg/kg, N = 3): 292 ng/mL
- concentration at 0.083 h (male, Swiss Albino, mouse, plasma, iv, 3 mg/kg, mouse plasma, IV 3 mg/kg, 0.083 h sample, read-out: Initial conc. (repeat analysis)): 47.3 ng/mL
- concentration at 0.083 h (male, Swiss Albino, mouse, plasma, iv, 3 mg/kg, mouse plasma, IV 3 mg/kg, 0.083 h sample, read-out: Repeated conc. (repeat analysis)): 75.6 ng/mL
- concentration at 0.25 h (male, Swiss Albino, mouse, plasma, iv, 3 mg/kg, mouse plasma, IV 3 mg/kg, 0.25 h samples, read-out: Initial conc. (repeat analysis)): 130 ng/mL
- concentration at 0.25 h (male, Swiss Albino, mouse, plasma, iv, 3 mg/kg, mouse plasma, IV 3 mg/kg, 0.25 h samples, read-out: Repeated conc. (repeat analysis)): 200 ng/mL
- half-life (male, Swiss Albino, mouse, plasma, iv, 3 mg/kg, mouse, IV 3 mg/kg, read-out: T1/2 (converted)): 1.67 h
- half-life (male, Swiss Albino, mouse, plasma, iv, 3 mg/kg, mouse, following intravenous administration 3 mg/kg, read-out: Half-life (converted)): ~1.7 h
- concentration at 0.083 h (male, Swiss Albino, mouse, plasma, iv, 3 mg/kg, mouse, intravenous bolus 3 mg/kg, 0.083 h, N = 2, read-out: Mean plasma concentration): 1690 ng/mL
- concentration at 0.25 h (male, Swiss Albino, mouse, plasma, iv, 3 mg/kg, mouse, intravenous bolus 3 mg/kg, 0.25 h, N = 3, read-out: Mean plasma concentration): 244 ng/mL
- concentration at 0.25 h (male, Swiss Albino, mouse, plasma, iv, 3 mg/kg, mouse, intravenous bolus 3 mg/kg, 0.25 h, individual mice, LLOQ 1.04 ng/mL, read-out: Individual plasma concentration): 200 ng/mL
- concentration at 1 h [1]: 147 ng/mL
- concentration at 1 h [2]: 116 ng/mL
- concentration at 2 h [1]: 65.2 ng/mL
- concentration at 2 h [2]: 71.9 ng/mL
- concentration at 4 h [1]: 35.9 ng/mL
- concentration at 4 h [2]: 42.4 ng/mL
- concentration at 8 h [1]: 8.95 ng/mL
- concentration at 8 h [2]: 10.1 ng/mL
- concentration at 12 h [1]: 1.29 ng/mL
- concentration at 12 h (male, Swiss Albino, mouse, plasma, iv, 3 mg/kg, mouse, intravenous bolus 3 mg/kg, individual mice, BLQ = below LLOQ 1.04 ng/mL, read-out: Individual plasma concentration): 1.68 ng/mL
- bioavailability (male, Swiss Albino, mouse, plasma, oral, 15 mg/kg, mouse, oral 15 mg/kg vs IV 3 mg/kg, read-out: F, absolute oral solution bioavailability): ~26%
- concentration at 0.25 h (male, Swiss Albino, mouse, plasma, oral, 15 mg/kg, mouse, oral solution 15 mg/kg, 0.25 h, N = 3, read-out: Mean plasma concentration): 140 ng/mL
- concentration at 1 h [3]: 199 ng/mL
- concentration at 2 h [3]: 96.5 ng/mL
- concentration at 4 h [3]: 146 ng/mL
- concentration at 8 h [3]: 75.3 ng/mL
- concentration at 8 h (male, Swiss Albino, mouse, plasma, oral, 15 mg/kg, mouse, oral solution 15 mg/kg, individual mice, LLOQ 1.04 ng/mL, read-out: Individual plasma concentration): 76.7 ng/mL
- concentration at 12 h [3]: 8.91 ng/mL
- concentration at 0.5 h (male, Swiss Albino, mouse, plasma, oral, 15 mg/kg, oral solution 15 mg/kg, N = 3): 148 ng/mL
- half-life (male, Swiss Albino, mouse, plasma, po, 15 mg/kg, mouse, oral solution 15 mg/kg, read-out: T1/2 (converted)): 1.98 h
- AUC [4]: 913 ng·h/mL
- AUC(0-t) [4]: 909 ng·h/mL
- Cmax [4]: 1690 ng/mL
- clearance [4]: 54.8 mL/min/kg
- Tmax (male, Swiss Albino, plasma, mouse, IV 3 mg/kg, first sampling point): 0.083 h
- Vd (male, Swiss Albino, plasma, mouse, IV 3 mg/kg, read-out: Vds. (volume of distribution)): 4.28 L/kg
- AUC [5]: 1170 ng·h/mL
- AUC(0-t) [5]: 1140 ng·h/mL
- Cmax [5]: 199 ng/mL
- Tmax [5]: 1 h
- Accepted conc. (repeat analysis) (mouse plasma, IV 3 mg/kg, 0.083 h sample): 75.62 c ng/mL
